According to patent publication US8673914B2, “Use of phosphodiesterase inhibitors for treating multidrug resistance” (St. John's University, priority 2011, dated 2014):

Assay: MTT cytotoxicity/reversal assay (Example 1)
Conditions: human
Method: The KB-C2 and KB-3-1 were kindly provided by Dr. Akiyama (Kagoshima University, Japan). […] Similarly, the HEK/MRP1 (ABCC1) and HEK/ABCB1 cells were generated by transfecting the HEK293 cells with either the MRP1 expression vector or the ABCB1 expression vector. All of the cell lines were grown in Dulbecco's modified Eagle's medium (DMEM) supplemented with 10% bovine serum, 100 units/ml penicillin, and […] streptomycin in a humidified incubator containing 5% CO2 at 37° C.
The MTT assay was used to assess cytotoxicity. The cultured cells were harvested with trypsin and resuspended in a final concentration of 4×10^3 cells/well for KB-3-1; 7.5×10^3 cells/well for KB-C2; and 8×10^3 for all of the other cell lines used in this study. Cells were seeded evenly in 96-well multiplates. […] After 68 h of incubation, 20 μl of the MTT solution (4 mg/ml) was added to each well, and the plate was further incubated for 4 h at 37° C., allowing viable cells to convert the yellow-colored MTT into dark-blue formazan crystals. Subsequently, the medium was discarded, and 100 μl of DMSO was added into each well to dissolve the formazan crystals, generating purple color. The absorbance was determined at 570 nm by an OPSYS Microplate Reader from DYNEX Technologies, Inc. (Chantilly, Va.). […] The degree of the reversal of multidrug resistance (MDR) was calculated by dividing the IC50 of an anticancer drug, e.g., an antineoplastic or chemotherapeutic drug (agent, compound), in a cell type in the absence of a reversal agent by the IC50 of the anticancer drug in the same cell type in the presence of the reversal agent. The IC50 values were calculated from survival curves using the Bliss method.

Q: Which IC50 at 68 h does the source give for CC(=O)O[C@H]1C(=O)[C@@]2(C)[C@H]([C@H](OC(=O)c3ccccc3)[C@]3(O)C[C@H](OC(=O)[C@H](O)[C@@H](NC(=O)c4ccccc4)c4ccccc4)C(C)=C1C3(C)C)[C@]1(OC(C)=O)CO[C@@H]1C[C@@H]2O [Paclitaxel, paclitaxel] here?
A: 219 ± 13.2 µM
